According to US8003648B2, “Heterocyclic GPR40 modulators” (Amgen Inc., priority 2006, dated 2011):

Target: T1, human GPR40 (Homo sapiens, UniProt O14842)
T1 construct: host or cells: CHO cells
Assay: Cell-based aequorin assay using human GPR40
Settings: activation of human GPR40; CHO cells stably transfected with GPR40 and Aequorin; 0.01% HSA; aequorin luminescence
Method: Cell-based aequorin assays were employed to characterize the modulatory activity of compounds on the GPR40 signaling pathway. In an exemplary assay, CHO cells were stably transfected with both GPR40 and Aequorin (Euroscreen). Cells were detached from the tissue culture dish with 2 mL of trypsin (0.25% (w/v)). Trypsinization was halted with 28 mL of Hanks Buffered Salt Solution containing 20 mM Hepes (H/HBSS) and 0.01% fatty acid-free human serum albumin (HSA). Coelantrazine is added to 1 ug/mL, and the cells were incubated for 2 hours at room temperature. Compounds were dissolved in DMSO for preparation of 10 mM stock solutions. Compounds were diluted in H/HBSS containing 0.01% HSA. Serial dilutions of the test compounds were prepared to determine dose response.
Aequorin luminescence measurements were made using an EG&G Berthold 96-well luminometer, and the response was measured over a 20 second interval after cells and compounds were mixed. The maximum relative light units was plotted to determine dose response. The EC50 (effective concentration to reach 50% maximal response) was determined from the dose response plot.
Table 1 presents representative data (EC50 values) obtained for exemplary compounds of the invention for the activation of human GPR40. […]

T1 sequence (O14842 whole entry): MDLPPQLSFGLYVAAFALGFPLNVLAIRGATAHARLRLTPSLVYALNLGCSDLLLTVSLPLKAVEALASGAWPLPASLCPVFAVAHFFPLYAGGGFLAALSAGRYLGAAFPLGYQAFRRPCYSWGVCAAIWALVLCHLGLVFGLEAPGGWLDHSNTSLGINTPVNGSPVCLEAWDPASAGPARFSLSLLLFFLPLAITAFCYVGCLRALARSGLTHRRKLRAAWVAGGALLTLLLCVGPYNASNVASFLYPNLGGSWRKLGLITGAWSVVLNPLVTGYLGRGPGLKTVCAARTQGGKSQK

Row | EC50 [nM] | SMILES
1 | 100 to 1000 | CC(C)c1cc(COc2ccc([C@H](CC(=O)O)c3ccon3)cc2)ccc1C(C)(C)C [Example 26, (S)-3-(4-(4-tert-Butyl-3-isopropylbenzyloxy)phenyl)-3-(isoxazol-3-yl)propanoic acid]
2 | 1000 to 10000 | O=C(O)C[C@@H](c1ccc(OCc2noc(-c3ccc(C(F)(F)F)cc3)n2)cc1)c1ccon1 [Example 65]
3 | 1000 to 10000 | O=C(O)C[C@@H](c1ccc(OCc2noc(-c3ccccc3)n2)cc1)c1ccon1 [Example 63]
4 | 100 to 1000 | CC1(C)CCC=C1c1ccc(COc2ccc([C@H](CC(=O)O)c3ccon3)cc2)cc1OC(F)(F)F [Example 36, (S)-3-(4-(4-(5,5-Dimethylcyclopent-1-enyl)-3-(trifluoromethoxy)benzyloxy)phenyl)-3-(isoxazol-3-yl)propanoic acid]
5 | 1000 to 10000 | O=C(O)C[C@@H](c1ccc(OCc2nc(-c3ccc(Cl)cc3)no2)cc1)c1ccon1 [Example 69]
6 | 10 to 100 | C=C(C)c1ccc(COc2ccc([C@H](CC(=O)O)c3ccon3)cc2)cc1OC(F)(F)F [Example 35, (S)-3-(4-(4-(Prop-1-en-2-yl)-3-(trifluoromethoxy)benzyloxy)-phenyl)-3-(isoxazol-3-yl)propanoic acid]
7 | 100 to 1000 | O=C(O)C[C@@H](c1ccc(OCc2cccc(NC(=O)c3ccc(C(F)(F)F)cc3)c2)cc1)c1ccon1 [Example 27, (S)-3-(4-(3-(4-(Trifluoromethyl)benzamido)benzyloxy)phenyl)-3-(isoxazol-3-yl)propanoic acid]
8 | 10 to 100 | CCCCOc1ccc(-c2nc(C)c(COc3ccc([C@H](CC(=O)O)c4ccon4)cc3)s2)cc1Cl [Example 79]
9 | 100 to 1000 | O=C(O)C[C@@H](c1ccc(OCc2cccc(S(=O)(=O)c3ccc(C(F)(F)F)cc3)c2)cc1)c1ccon1 [Example 33, (S)-3-(4-(3-(4-(Trifluoromethyl)phenylsulfonyl)benzyloxy)-phenyl)-3-(isoxazol-3-yl)propanoic acid]
10 | 100 to 1000 | O=C(O)C[C@@H](c1ccc(OCc2cccc(NS(=O)(=O)c3ccc(C(F)(F)F)cc3)c2)cc1)c1ccon1 [Example 32, (S)-3-(4-(3-(4-Trifluoromethylphenylsulfonamido)benzyloxy)-phenyl)-3-(isoxazol-3-yl)propanoic acid]
11 | 100 to 1000 | CCCCc1ccc(-c2cc(COc3ccc([C@H](CC(=O)O)c4ccon4)cc3)c(C)o2)cc1 [Example 56]
12 | 1000 to 10000 | Cc1nc(-c2ccc(CCCO)cc2)sc1COc1ccc([C@H](CC(=O)O)c2ccon2)cc1 [Example 55, (S)-3-(4-((2-(4-(3-Hydroxypropyl)phenyl)-4-methylthiazol-5-yl)methoxy)phenyl)-3-(isoxazol-3-yl)propanoic acid]
13 | 10 to 100 | Cc1ccc(-c2nc(C)c(COc3ccc([C@H](CC(=O)O)c4ccon4)cc3)s2)cc1 [Example 58, (S)-3-(Isoxazol-3-yl)-3-(4-((4-methyl-2-(4-methylphenyl)thiazol-5-yl)methoxy)phenyl)propanoic acid]
14 | 10 to 100 | O=C(O)C[C@@H](c1ccc(OCc2ccc(-c3ccc(C(F)(F)F)cc3)s2)cc1)c1ccon1 [Example 61, (3S)-3-(3-Isoxazolyl)-3-(4-(((5-(4-(trifluoromethyl)phenyl)-2-thienyl)methyl)oxy)phenyl)propanoic acid]
15 | 1000 to 10000 | O=C(O)C[C@@H](c1ccc(OCc2nc(-c3cccc(C(F)(F)F)c3)no2)cc1)c1ccon1 [Example 68]
16 | 10 to 100 | O=C(O)C[C@@H](c1ccc(OCc2ccc(C3=CCCC3)c(OC(F)(F)F)c2)cc1)c1ccon1 [Example 28, (S)-3-(4-(4-Cyclopentenyl-3-(trifluoromethoxy)benzyloxy)-phenyl)-3-(isoxazol-3-yl)propanoic acid]
17 | 10 to 100 | O=C(O)C[C@@H](c1ccc(OCc2cccc(Sc3ccc(C(F)(F)F)cc3)c2)cc1)c1ccon1 [Example 31, (S)-3-(4-(3-(4-(Trifluoromethyl)phenylthio)benzyloxy)phenyl)-3-(isoxazol-3-yl)propanoic acid]
18 | 1000 to 10000 | Cc1ccc(-c2nc(C)c(COc3ccc([C@@H](CC(=O)O)c4ccon4)cc3)s2)cc1 [Example 59, (R)-3-(Isoxazol-3-yl)-3-(4-((4-methyl-2-(4-methylphenyl)thiazol-5-yl)methoxy)phenyl)propanoic acid]
19 | 1000 to 10000 | O=C(O)C[C@@H](c1ccc(OCc2nc(-c3ccccc3)no2)cc1)c1ccon1 [Example 67]
20 | 1000 to 10000 | CC12CCC(c3ncc(COc4ccc([C@H](CC(=O)O)c5ccon5)cc4)nc31)C2(C)C (stereo partly shown) [Example 83]
21 | 1000 to 10000 | CC1(C)CCC(C)(C)c2cc(COc3ccc([C@@H](CC(=O)O)c4ccon4)cc3)ccc21 [Example 41, (R)-3-(Isoxazol-3-yl)-3-(4-((5,5,8,8-tetramethyl-5,6,7,8-tetrahydronaphthalen-2-yl)methoxy)phenyl)propanoic acid]
22 | 10 to 100 | CCCCc1ccc(-c2nc(C)c(COc3ccc([C@H](CC(=O)O)c4ccon4)cc3)s2)cc1 [Example 77]
23 | 1000 to 10000 | CC12CCC(c3nc(COc4ccc([C@H](CC(=O)O)c5ccon5)cc4)cnc31)C2(C)C (stereo partly shown) [Example 82]
24 | 10 to 100 | CCCOc1c(C)cc(-c2nc(C)c(COc3ccc([C@H](CC(=O)O)c4ccon4)cc3)s2)cc1C [Example 80]

Continued, molecule first:

Row | SMILES | EC50 [nM]
25 | O=C(O)C[C@@H](c1ccc(OCc2ccc(OC(F)(F)F)c(C3=CCCC3)c2)cc1)c1ccon1 [Example 20, (S)-3-(4-(3-Cyclopentenyl-4-(trifluoromethoxy)benzyloxy)-phenyl)-3-(isoxazol-3-yl)propanoic acid] | 10 to 100
26 | Cc1ccc(-c2cc(COc3ccc([C@H](CC(=O)O)c4ccon4)cc3)c(C)o2)cc1 [Example 15, (S)-3-(Isoxazol-3-yl)-3-(4-((2-methyl-5-p-tolylfuran-3-yl)methoxy)phenyl)propanoic acid] | 10 to 100
27 | CCOc1cc(Cl)ccc1-c1ccc(COc2ccc([C@@H](CC(=O)O)c3ccon3)cc2)cc1 [Example 5, (R)-3-(4-(4-(4-Chloro-2-ethoxyphenyl)benzyloxy)phenyl)-3-(isoxazol-3-yl)propanoic acid] | 1000 to 10000
28 | O=C(O)C[C@@H](c1ccc(OCCCCOc2ccc(C(F)(F)F)cc2)cc1)c1ccon1 [Example 49] | 100 to 1000
29 | Cc1c(Cl)cccc1-c1cccc(COc2ccc(C(CC(=O)O)c3ccon3)cc2)c1 (stereo not shown) [Example 1, 3-(4-(3-(3-Chloro-2-methylphenyl)benzyloxy)phenyl)-3-(isoxazol-3-yl)propanoic acid] | 10 to 100
30 | Cc1ccc(-c2nc(C)c(COc3ccc([C@H](CC(=O)O)C4=NOCC4)cc3)s2)cc1 [Example 10, (S)-3-(Dihydroisoxazol-3-yl)-3-(4-((4-methyl-2-(4-methylphenyl)thiazol-5-yl)methoxy)phenyl)propanoic acid] | 100 to 1000
31 | O=C(O)C[C@@H](c1ccc(OCc2ccc(Cl)c(C(F)(F)F)c2)cc1)c1ccon1 [Example 21, (S)-3-(4-(4-Chloro-3-(trifluoromethyl)benzyloxy)phenyl)-3-(isoxazol-3-yl)propanoic acid] | 10 to 100
32 | O=C(O)C[C@@H](c1ccc(OCc2ccc(OC(F)(F)F)c(OC(F)(F)F)c2)cc1)c1ccon1 [Example 22, (S)-3-(4-(3,4-Bis(trifluoromethoxy)benzyloxy)phenyl)-3-(isoxazol-3-yl)propanoic acid] | 10 to 100
33 | Cc1nc(-c2ccc(C(F)(F)F)cc2)sc1COc1ccc([C@H](CC(=O)O)C2=NOCC2)cc1 [Example 9, (S)-3-(Dihydroisoxazol-3-yl)-3-(4-((4-methyl-2-(4-(trifluoromethyl)phenyl)thiazol-5-yl)methoxy)phenyl)propanoic acid] | 10 to 100
34 | Cc1nc(-c2ccc(C(F)(F)F)cc2)sc1COc1ccc([C@H](CC(=O)O)c2ccon2)cc1 [Example 7, (S)-3-(Isoxazol-3-yl)-3-(4-((4-methyl-2-(4-(trifluoromethyl)phenyl)thiazol-5-yl)methoxy)phenyl)propanoic acid] | 10 to 100
35 | CCOc1cc(Cl)ccc1-c1ccc(COc2ccc([C@H](CC(=O)O)c3ccon3)cc2)cc1 [Example 4, (S)-3-(4-(4-(4-Chloro-2-ethoxyphenyl)benzyloxy)phenyl)-3-(isoxazol-3-yl)propanoic acid] | 10 to 100
36 | O=C(O)C[C@@H](c1ccc(OCc2ccc(OC(F)(F)F)c(Br)c2)cc1)c1ccon1 [Example 25, (S)-3-(4-(3-bromo-4-(trifluoromethoxy)benzyloxy)phenyl)-3-(isoxazol-3-yl)propanoic acid] | 10 to 100
37 | O=C(O)C[C@@H](c1ccc(OCc2ccc(OC(F)(F)F)c(C3CCCC3)c2)cc1)c1ccon1 [Example 23, (S)-3-(4-(3-Cyclopentyl-4-(trifluoromethoxy)benzyloxy)-phenyl)-3-(isoxazol-3-yl)propanoic acid] | 10 to 100
38 | C=C(C)c1cc(COc2ccc([C@H](CC(=O)O)c3ccon3)cc2)ccc1OC(F)(F)F [Example 24, (S)-3-(4-(3-(Prop-1-en-2-yl)-4-(trifluoromethoxy)benzyloxy)-phenyl)-3-(isoxazol-3-yl)propanoic acid] | 10 to 100
39 | COc1ccc(-c2nc(COc3ccc([C@H](CC(=O)O)c4ccon4)cc3)no2)cc1 [Example 11, (S)-3-(Isoxazol-3-yl)-3-(4-((5-(4-methoxyphenyl)-1,2,4-oxadiazol-3-yl)methoxy)phenyl)propanoic acid] | 1000 to 10000
40 | Cc1nc(-c2ccc(C(F)(F)F)cc2)sc1COc1ccc(C(CC(=O)O)C2=NOCC2)cc1 (stereo not shown) [Example 8] | 100 to 1000
